Results from US20260206757A1, “METHODS OF CONTROLLING UNDESIRABLE PLANTS WITH PPO HERBICIDES AND COMBINATIONS IN HERBICIDE TOLERANT CROP PLANTS” (BASF AGRO B.V., priority 2022, published 2026).

Tests used:
sunflower = conditions: applied to sunflower with at least two true leaves; cited from earlier work
HELAN w F(383)I = test: Greenhouse experiment, crop safety of PPO inhibitor tolerant sunflower; format: in vivo, Helianthus annuus; conditions: scale 0 to 100%
Experimental: (§1) For the post emergence treatment, the plants were first grown to the 2 to 4 leaf stage (GS 12/14). The plants were cultivated due to their individual requirements at 10-25° C. and 20-35° C. The plants were irrigated as required.
(§2) Here, the herbicidal compositions were suspended or emulsified in water as distribution medium and sprayed using finely distributing nozzles. 1% methylated seed oil (MSO) has been added as adjuvant to each of the solo and mixture treatments.
(§3) In the greenhouse experiments, the herbicidal activity for the individual herbicidal compositions (solo and mixture applications) was assessed 20/21 days after treatment (DAT).
(§4) The evaluation for the damage on undesired weeds caused by the chemical compositions was carried out using a scale from 0 to 100%, compared to the untreated control plants. Here, 0 means no damage and 100 means complete destruction of the plants.

Solanum nigrum = test: Greenhouse experiment, post emergence herbicidal activity; format: in vivo; conditions: SOLNI, BBCH 12-14, Flumioxazin 1, Fomesafen 123 g ai/ha
Experimental: as §1, §2, §3, §4

Portulaca oleracea = test: as above; format: in vivo; conditions: POROL, BBCH 12-14, Flumioxazin 4, Bifenox 168 g ai/ha
Experimental: as §1, §2, §3, §4

Echinochloa crus-galli = test: Field experiment, post-emergence herbicidal activity; format: in vivo; conditions: ECHCG, postemergence
Experimental: (§5) Trial Objective: Saflufenacil in tank mix with Pendimethalin efficacy on weeds and grasses in early post-emergence of the weeds
(§6) On field test sites, natural weed infestation was treated, pre-emergence of the weeds on bare soil or post-emergence of the weeds.
(§7) For the post emergence treatment, the weedy plants were treated between the 2-4 true leaf stage (GS12-14) and the 6 true leaf stage (GS 16). The herbicidal compositions were suspended or emulsified in water as distribution medium and sprayed with commercial flat fan nozzles using between 100 and 200 l/ha water.
as §4, with “In the following experiments, the herbicidal activity for the individual herbicidal compositions (solo and mixture applications) was assessed up to 36 days after treatment (DAT). The” for “The”, “assessments” for “evaluation”
(§8) [formula] • where X=effect in percent using herbicide (A) at an application rate a; • Y=effect in percent using herbicide (B) at an application rate b; • E=expected effect (in %) of herbicide (A)+herbicide (B) at application rates a+b.
(§9) The value E corresponds to the effect (plant damage or injury) which is to be expected if the activity of the individual compounds is additive. If the observed effect is higher than the value E calculated according to the Colby equation, a synergistic effect is present.

Amaranthus retroflexus = test: as above; format: in vivo; conditions: AMARE, postemergence
Experimental: as §5, §6, §7
as §4, with “In the following experiments, the herbicidal activity for the individual herbicidal compositions (solo and mixture applications) was assessed up to 36 days after treatment (DAT). The” for “The”, “assessments” for “evaluation”
as §8, §9

Mercuralis annua = test: as above; format: in vivo; conditions: MERAN, postemergence, Saflufenacil 12.5, Pendimethalin 1365 g ai/ha
Experimental: as §5, §6, §7
as §4, with “In the following experiments, the herbicidal activity for the individual herbicidal compositions (solo and mixture applications) was assessed up to 36 days after treatment (DAT). The” for “The”, “assessments” for “evaluation”
as §8, §9

[1] = Saflufenacil 12.5, Pendimethalin 1064 g ai/ha

## C#CCN1C(=O)COc2cc(F)c(N3C(=O)C4=C(CCCC4)C3=O)cc21 [Flumioxazin, 2-[7-fluoro-3,4-dihydro-3-oxo-4-(2-propyn-1-yl)-2H-1,4-benzoxazin-6-yl]-4,5,6,7-tetrahydro-1H-isoindole-1,3 (2H)-dione]
sunflower
  crop injury: without high level of crop injury
HELAN w F(383)I; BBCH 12-14, Flumioxazin 0.5, Bifenox 168 g ai/ha
  Observed crop damage 21 days after treatment: 15%
HELAN w F(383)I; BBCH 12-14, Flumioxazin 0.5, Halauxifen 1 g ai/ha
  Observed crop damage 21 days after treatment: 15%
Solanum nigrum
  % Herbicidal activity: 90%
Portulaca oleracea
  % Herbicidal activity: 98%

## CC(C)N(C)S(=O)(=O)NC(=O)c1cc(-n2c(=O)cc(C(F)(F)F)n(C)c2=O)c(F)cc1Cl [Saflufenacil, 2-chloro-5-[3,6-dihydro-3-methyl-2,6-dioxo-4-(trifluoromethyl)-1-(2H)pyrimidinyl]-4-fluoro-N-[[methyl (1-methylethyl)amino]-sulfonyl]benzamide]
Echinochloa crus-galli; [1]
  % Herbicidal activity: 0%
Echinochloa crus-galli; Saflufenacil 12.5, Pendimethalin 1365 g ai/ha
  % Herbicidal activity: 5%
Echinochloa crus-galli; Saflufenacil 50, Pendimethalin 1064 g ai/ha
  % Herbicidal activity: 0%
Amaranthus retroflexus; Saflufenacil 12.5, Pendimethalin 840 g ai/ha
  % Herbicidal activity: 35%
Amaranthus retroflexus; [1]
  % Herbicidal activity: 60%
Mercuralis annua
  % Herbicidal activity: 0%
